Molecules are shown by their SMILES.

One may read the melting point as the temperature of the solid-liquid transition.

Take `Cc1ccc(C(=O)Nc2cc(C(C)(C)C)ccc2[S+](C)[O-])cc1-n1cc(C(=O)NCC(C)(C)C)nn1` (centres unmarked) [Example 13, 1-[5-(5-tert-Butyl-2-methanesulfinyl-phenylcarbamoyl)-2-methyl-phenyl]-1H-1,2,3-triazole-4-carboxylic acid (2,2-dimethyl-propyl)-amide]: the melting point is 74 to 78 °C (dec.). Consider `COc1cnc(C(C)(C)C)cc1NC(=O)c1ccc(C)c(-n2cc(C(=O)NCC(C)(C)C)nn2)c1` [Example 12, 1-[5-(2-tert-Butyl-5-methoxy-pyridin-4-ylcarbamoyl)-2-methyl-phenyl]-1H-1,2,3-triazole-4-carboxylic acid (2,2-dimethyl-propyl)-amide], for which the melting point was 181 to 182 °C (dec.).

Source of the values: US7511042B2, “Triazole compounds” (Boehringer Ingelheim Pharmaceuticals, Inc., priority 2003, dated 2009).
